Measured values: patent publication US6358885B1, “Substituted phenylheterocyclic herbicides” (Mississippi State University, priority 1992, dated 2002)

Tests used:
barley [1] = experiment: Test B preemergence/postemergence greenhouse plant response rating 0 to 10; assay type: in vivo, Hordeum vulgare; conditions: for Plant response rating, Barley: 0 to 10 scale
Procedure, shortened: (§1)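 Planted seeds are treated preemergence with compound dissolved in a non-phytotoxic solvent, while postemergence applications go onto plants of two to eighteen cm. Plants stay in the greenhouse twelve to sixteen days and are then rated visually relative to controls.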

morningglory [2] = experiment: as above; assay type: in vivo, Ipomoea hederacea; conditions: 0 to 10 scale
Procedure, shortened: as §1

giant foxtail [3] = experiment: Test C preemergence/postemergence greenhouse plant response rating 0 to 100; assay type: in vivo, Setaria faberii; conditions: POSTEMERGENCE; for Plant response rating, Giant foxtail: 0 to 100 scale
Procedure, shortened: (§2)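 Compounds in non-phytotoxic solvent went onto sandy loam before emergence (seeded one day earlier) or onto plants at the one-to-four leaf stage. Duck salad was treated via flood water (~2.5 cm, maintained) over silt loam.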

bedstraw = experiment: Test B preemergence/postemergence greenhouse plant response rating 0 to 10; assay type: in vivo, Galium aparine; conditions: for Plant response rating, Bedstraw: 0 to 10 scale
Procedure, shortened: as §1

barley [4] = experiment: Test C preemergence/postemergence greenhouse plant response rating 0 to 100; assay type: in vivo, Hordeum vulgare; conditions: POSTEMERGENCE; for Plant response rating Barley Igri: 0 to 100 scale
Procedure, shortened: as §2

blackgrass = experiment: as above; assay type: in vivo, Alopecurus myosuroides; conditions: POSTEMERGENCE; for Plant response rating, Blackgrass: 0 to 100 scale
Procedure, shortened: as §2

rice = experiment: Test C flood test plant response rating 0 to 100; assay type: in vivo, Oryza sativa; conditions: for Plant response rating Rice Japonica: flood test species listed under POSTEMERGENCE, 0 to 100 scale
Procedure, shortened: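 Compounds in non-phytotoxic solvent applied preemergence to sandy loam one day after planting, postemergence at the 1–4 leaf stage, or to ~2.5 cm floodwater over silt loam.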

velvetleaf = experiment: Test B preemergence/postemergence greenhouse plant response rating 0 to 10; assay type: in vivo, Abutilon theophrasti; conditions: 0 to 10 scale
Procedure, shortened: as §1

rape = experiment: Test C preemergence/postemergence greenhouse plant response rating 0 to 100; assay type: in vivo, Brassica napus; conditions: POSTEMERGENCE; for Plant response rating, Rape: 0 to 100 scale
Procedure, shortened: as §2

cheatgrass = experiment: Test B preemergence/postemergence greenhouse plant response rating 0 to 10; assay type: in vivo, Bromus secalinus; conditions: for Plant response rating, Cheatgrass: 0 to 10 scale
Procedure, shortened: as §1

giant foxtail [5] = experiment: as above; assay type: in vivo, Setaria faberii; conditions: 0 to 10 scale
Procedure, shortened: as §1

chickweed = experiment: Test C preemergence/postemergence greenhouse plant response rating 0 to 100; assay type: in vivo, Stellaria media; conditions: POSTEMERGENCE; for Plant response rating, Chickweed: 0 to 100 scale
Procedure, shortened: as §2

sorghum = experiment: as above; assay type: in vivo, Sorghum bicolor; conditions: POSTEMERGENCE; for Plant response rating, Sorghum: 0 to 100 scale
Procedure, shortened: as §2

cocklebur = experiment: Test B preemergence/postemergence greenhouse plant response rating 0 to 10; assay type: in vivo, Xanthium pensylvanicum; conditions: for Plant response rating, Cocklebur: 0 to 10 scale
Procedure, shortened: as §1

soybean [6] = experiment: Test C preemergence/postemergence greenhouse plant response rating 0 to 100; assay type: in vivo, Glycine max; conditions: POSTEMERGENCE; for Plant response rating, Soybean: 0 to 100 scale
Procedure, shortened: as §2

lambsquarters = experiment: Test B preemergence/postemergence greenhouse plant response rating 0 to 10; assay type: in vivo, Chenopodium album; conditions: 0 to 10 scale
Procedure, shortened: as §1

soybean [7] = experiment: as above; assay type: in vivo, Glycine max; conditions: 0 to 10 scale
Procedure, shortened: as §1

morningglory [8] = experiment: Test C preemergence/postemergence greenhouse plant response rating 0 to 100; assay type: in vivo, Ipomoea hederacea; conditions: POSTEMERGENCE; for Plant response rating, Morningglory: 0 to 100 scale
Procedure, shortened: as §2

COc1cc(-c2nn3c(c2Cl)CCCC3)c(F)cc1Cl [Compound 29]
5: Plant response rating (0 to 10 scale), Barley (barley [1]; POSTEMERGENCE, Rate 50 g/ha) | Plant response rating, Morningglory (morningglory [2]; Rate 200 g/ha, PREEMERGENCE) | Plant response rating, Cheatgrass (cheatgrass; PREEMERGENCE, Rate 50 g/ha) | Plant response rating, Soybean (soybean [7]; Rate 200 g/ha, PREEMERGENCE)
20: Plant response rating (0 to 100), Giant foxtail (giant foxtail [3]; Rate 16 g/ha) | Plant response rating (0 to 100), Barley Igri (barley [4]; Rate 4 g/ha) | Plant response rating (0 to 100), Blackgrass (blackgrass; Rate 4 g/ha) | Plant response rating, Sorghum (sorghum; 62 g/ha)
60: Plant response rating Barley Igri (barley [4]; 62 g/ha) | Plant response rating, Chickweed (chickweed; 62 g/ha) | Plant response rating, Soybean (soybean [6]; 62 g/ha)
80: Plant response rating, Morningglory (morningglory [8]; 62 g/ha) | Plant response rating (0 to 100), Morningglory (morningglory [8]; Rate 16 g/ha)
9: Plant response rating, Bedstraw (bedstraw; Rate 200 g/ha, PREEMERGENCE) | Plant response rating, Giant foxtail (giant foxtail [5]; Rate 200 g/ha, PREEMERGENCE) | Plant response rating, Soybean (soybean [7]; Rate 200 g/ha, POSTEMERGENCE)
70: Plant response rating, Giant foxtail (giant foxtail [3]; 62 g/ha) | Plant response rating Rice Japonica (rice; 62 g/ha) | Plant response rating (0 to 100), Morningglory (morningglory [8]; Rate 4 g/ha)
1: Plant response rating, Soybean (soybean [7]; PREEMERGENCE, Rate 50 g/ha)
30: Plant response rating (0 to 100), Blackgrass (blackgrass; Rate 16 g/ha) | Plant response rating (0 to 100), Rice Japonica (rice; POSTEMERGENCE section, flood test, Rate 4 g/ha)
2: Plant response rating, Morningglory (morningglory [2]; PREEMERGENCE, Rate 50 g/ha) | Plant response rating, Cocklebur (cocklebur; PREEMERGENCE, Rate 50 g/ha)
40: Plant response rating (0 to 100), Barley Igri (barley [4]; Rate 16 g/ha) | Plant response rating (0 to 100), Chickweed (chickweed; Rate 16 g/ha)
95: Plant response rating, Chickweed (chickweed; 250 g/ha)
0: Plant response rating, Barley (barley [1]; PREEMERGENCE, Rate 50 g/ha) | Plant response rating (0 to 100), Giant foxtail (giant foxtail [3]; Rate 4 g/ha) | Plant response rating (0 to 100), Sorghum (sorghum; Rate 4 g/ha) | Plant response rating (0 to 100), Sorghum (sorghum; Rate 16 g/ha)
100: Plant response rating, Giant foxtail (giant foxtail [3]; 250 g/ha) | Plant response rating, Rape (rape; 62 g/ha) | Plant response rating, Rape (rape; 250 g/ha) | Plant response rating (0 to 100), Rape (rape; Rate 16 g/ha) | Plant response rating, Soybean (soybean [6]; 250 g/ha) | Plant response rating, Morningglory (morningglory [8]; 250 g/ha)
50: Plant response rating, Blackgrass (blackgrass; 62 g/ha) | Plant response rating, Sorghum (sorghum; 250 g/ha) | Plant response rating (0 to 100), Soybean (soybean [6]; Rate 16 g/ha)
7: Plant response rating, Barley (barley [1]; POSTEMERGENCE, Rate 200 g/ha) | Plant response rating (0 to 10 scale), Bedstraw (bedstraw; POSTEMERGENCE, Rate 50 g/ha) | Plant response rating, Bedstraw (bedstraw; PREEMERGENCE, Rate 50 g/ha)
65: Plant response rating (0 to 100), Rice Japonica (rice; Rate 16 g/ha, under POSTEMERGENCE head (flood test species))
3: Plant response rating, Giant foxtail (giant foxtail [5]; POSTEMERGENCE, Rate 50 g/ha)
6: Plant response rating, Giant foxtail (giant foxtail [5]; Rate 200 g/ha, POSTEMERGENCE) | Plant response rating (0 to 10 scale), Cocklebur (cocklebur; POSTEMERGENCE, Rate 50 g/ha)
4: Plant response rating, Barley (barley [1]; Rate 200 g/ha, PREEMERGENCE) | Plant response rating (0 to 10 scale), Cheatgrass (cheatgrass; POSTEMERGENCE, Rate 50 g/ha) | Plant response rating, Cocklebur (cocklebur; Rate 200 g/ha, PREEMERGENCE)
10: Plant response rating, Morningglory (morningglory [2]; Rate 200 g/ha, POSTEMERGENCE) | Plant response rating, Bedstraw (bedstraw; POSTEMERGENCE, Rate 200 g/ha) | Plant response rating, Velvetleaf (velvetleaf; PREEMERGENCE, Rate 50 g/ha) | Plant response rating, Velvetleaf (velvetleaf; Rate 200 g/ha, POSTEMERGENCE) | Plant response rating, Velvetleaf (velvetleaf; Rate 200 g/ha, PREEMERGENCE) | Plant response rating (0 to 100), Chickweed (chickweed; Rate 4 g/ha) | Plant response rating, Cocklebur (cocklebur; POSTEMERGENCE, Rate 200 g/ha) | Plant response rating (0 to 100), Soybean (soybean [6]; Rate 4 g/ha) | Plant response rating, Lambsquarter (lambsquarters; POSTEMERGENCE, Rate 50 g/ha) | Plant response rating, Lambsquarter (lambsquarters; PREEMERGENCE, Rate 50 g/ha) | Plant response rating, Lambsquarter (lambsquarters; Rate 200 g/ha, POSTEMERGENCE) | Plant response rating, Lambsquarter (lambsquarters; Rate 200 g/ha, PREEMERGENCE)
8: Plant response rating, Morningglory (morningglory [2]; POSTEMERGENCE, Rate 50 g/ha) | Plant response rating, Velvetleaf (velvetleaf; POSTEMERGENCE, Rate 50 g/ha) | Plant response rating, Cheatgrass (cheatgrass; POSTEMERGENCE, Rate 200 g/ha) | Plant response rating, Cheatgrass (cheatgrass; Rate 200 g/ha, PREEMERGENCE) | Plant response rating, Giant foxtail (giant foxtail [5]; PREEMERGENCE, Rate 50 g/ha) | Plant response rating, Soybean (soybean [7]; POSTEMERGENCE, Rate 50 g/ha)
90: Plant response rating Barley Igri (barley [4]; 250 g/ha) | Plant response rating, Blackgrass (blackgrass; 250 g/ha) | Plant response rating Rice Japonica (rice; 250 g/ha) | Plant response rating (0 to 100), Rape (rape; Rate 4 g/ha)
